How the values were obtained:
CYP 2C19 = CYP 2C19 (Homo sapiens (Human), UniProt P33261); assay: CYP inhibition assay (P450-Glo); type: in vitro ADME; conditions: recombinant CYP
Eμmyc lymphoma cells = assay: In vivo efficacy, mice injected intravenously with Eμmyc lymphoma cells; conditions: C57BL/6 mice
Protocol: The efficacy of compounds of the invention alone or in combination with chemotherapeutics agents were measured in vivo by implanting allografts or xenografts of cancer cells in rodents and treating the tumour-bearing animals with the compounds alone or in combination with chemotherapeutics agents.
Recipient mice were monitored for tumor formation by the presence of tumoral cells in the blood (LDH measurement), and twice a week by palpation of the pre-scapular and cervical lymph-nodes, once a week by sonography measurement of thoracic lymph-nodes size. […] Efficacy of the treatment was done evaluating the relative weight of all tumoral tissues (spleen, salivary lymph-nodes, mammary lymph-nodes, thymus and mesenteric lymph-nodes) versus body weight substrating the relative weight of same normal tissues. Bars represent standard error of the mean (n=8).

CYP 2D6 = CYP 2D6 (Homo sapiens (Human), UniProt P10635); assay: CYP inhibition assay (P450-Glo); type: in vitro ADME; conditions: recombinant CYP
CYP 2C9 = CYP 2C9 (Homo sapiens (Human), UniProt P11712); assay: CYP inhibition assay (P450-Glo); conditions: read-out: P450-2C9 IC50; recombinant CYP
ATR [1] = target: T1, ATR (Homo sapiens (Human), UniProt Q13535); assay: Cellular ATR inhibition, western blot of CHK1(S345) phosphorylation in hydroxyurea treated cells; type: cell-based; conditions: HT29 cells
Protocol: In addition to the selective system described above, Example compounds presented here were screened for their ability to inhibit intracellular ATR using a western blot assay to detect phosphorylation of the ATR substrate CHK1(S345) in hydroxyurea treated cells. HT29 cells are plated at 500,000 cells per well in 6-well plates in RPMI media (Sigma R6504) supplemented with 10% foetal bovine serum (Sigma F7524), Penicillin/Streptomycin solution diluted 1:100 (Gibco 15070-063), and fungizone (Gibco, 15290-018), and allowed to adhere overnight at 37° C. in 5% CO2. Compounds are then added to the cell media from a final concentration of 10 μM in 3-fold serial dilutions and the cells are incubated at 37° C. in 5% CO2. After 15 min, hydroxyurea (Sigma H8627) is added to a final concentration of 2.5 mM. After 30 min of treatment with hydroxyurea, the cells are washed in PBS, lysed adding 50 μl of in protein lysis buffer (50 mM Tris pH 7.5, 150 mM NaCl, 1% IGEPAL CO-630 (Sigma, Ref. 542334-100G-A), Phospho Stop (Roche, Ref. 04906837001) and Complete Mini EDTA free (Roche, Ref. 11836170001)). The protein content of the lysates was determined by the modified method of Bradford (Sigma, Ref. B6916). The proteins were resolved by SDS-PAGE and transferred to nitrocellulose membrane (VWR International Eurolab, Ref. 732-4007). The membranes were incubated overnight at 4° C. with antibodies specific for total CHK1 (Santa Cruz Biotechnology, sc-8404), phosphoserine-345 CHK1 (Cell Signaling Technology #2348) they were washed and then incubated with IRDye800 conjugated anti-mouse (Pierce/Cultek, 35521) and Alexa Fluor 680 goat anti-rabbit IgG secondary antibodies (Invitrogen, A21076). The bands were visualized and quantified using an Odyssey infrared imaging system (Li-Cor Biosciences). The percentage of phosphorylated CHK1 vs total CHK1 in cells treated with hydroxyurea was taken as hundred percent of phosphorylation. The percentage of CHK1 phosphorylation is finally plotted against concentration for each compound and EC50s for intracellular ATR inhibition are calculated using ActivityBase from IDBS.

CYP 1A2 = CYP 1A2 (Homo sapiens (Human), UniProt P05177); assay: CYP inhibition assay (P450-Glo); type: in vitro ADME; conditions: recombinant CYP
CYP 3A4 = CYP 3A4 (Homo sapiens (Human), UniProt P08684); assay: CYP inhibition assay (P450-Glo); conditions: read-out: P450-3A4 IC50; recombinant CYP
ATR [2] = target: T1, ATR; assay: Cellular ATR inhibition, pChk1 Ser345 after UV mimetic 4NQO; type: cell-based; conditions: HT-29, read-out: UV mimetic inhibition of CHK1P at 10 μM (%); 10 μM compound, 3 μM 4NQO, HT29 cells
Description: (§1) ATM and ATR have distinct and overlapping responses to DNA damage. They must participate together and responses must be coordinated. Both pathways may be activated by ionizing radiation, and UV. As UV treatment is not practical for use in a high throughput cell assay, the UV mimetic 4NQO (Sigma) was chosen to activate the ATR and ATM DNA damage response pathway.
(§2) Chk1, a downstream protein kinase of ATR, has a key role in DNA damage checkpoint control, as well as Chk2 downstream of ATM. […] This assay measures a decrease in phosphorylation of Chk1 (Ser 345) and […] in HT29 colon adenocarcinoma cells following treatment with compound and the UV mimetic 4NQO. Compounds at 1 mM were created by diluting in 100% DMSO and then diluted 1:100 into assay media (RPMI, 10% FCS, 1% glutamine). Cells were plated in 6 well Costar plates at 5×10^5 cells per mL in 2 mL RPMI, 10% FCS, 1% glutamine and grown for 24 hrs. Following addition of compound the cells were incubated for 60 minutes. A final concentration of 3 μM 4NQO (prepared in 100% DMSO) was then added and the cells incubated for a further 60 mins. The cells are lysed and pChk1 Ser345 and pCHK2 Thr68 (Cell Signaling Technology, #2661) versus total CHK1 and CHK2 (Santa Cruz Biotechnology, se-5278) respectively has analysed by western blot as described above. The percentage of phosphorylated CHK1 versus total CHK1 or p-CHK2 versus total CHK2 in cells treated with 4NQO was taken as hundred percent of phosphorylation. The percentage of CHK1 or CHK2 phosphorylation is finally plotted against concentration for each compound and EC50s for intracellular ATR inhibition are calculated using ActivityBase from IDBS.

ATM = ATM (Homo sapiens (Human), UniProt Q13315); assay: Cellular ATM inhibition, pCHK2 Thr68 after UV mimetic 4NQO; type: cell-based; conditions: HT-29, read-out: UV mimetic inhibition of CHK2P at 10 μM (%); 10 μM compound, 3 μM 4NQO, HT29 cells
ATM, sequence (Q13315 whole entry): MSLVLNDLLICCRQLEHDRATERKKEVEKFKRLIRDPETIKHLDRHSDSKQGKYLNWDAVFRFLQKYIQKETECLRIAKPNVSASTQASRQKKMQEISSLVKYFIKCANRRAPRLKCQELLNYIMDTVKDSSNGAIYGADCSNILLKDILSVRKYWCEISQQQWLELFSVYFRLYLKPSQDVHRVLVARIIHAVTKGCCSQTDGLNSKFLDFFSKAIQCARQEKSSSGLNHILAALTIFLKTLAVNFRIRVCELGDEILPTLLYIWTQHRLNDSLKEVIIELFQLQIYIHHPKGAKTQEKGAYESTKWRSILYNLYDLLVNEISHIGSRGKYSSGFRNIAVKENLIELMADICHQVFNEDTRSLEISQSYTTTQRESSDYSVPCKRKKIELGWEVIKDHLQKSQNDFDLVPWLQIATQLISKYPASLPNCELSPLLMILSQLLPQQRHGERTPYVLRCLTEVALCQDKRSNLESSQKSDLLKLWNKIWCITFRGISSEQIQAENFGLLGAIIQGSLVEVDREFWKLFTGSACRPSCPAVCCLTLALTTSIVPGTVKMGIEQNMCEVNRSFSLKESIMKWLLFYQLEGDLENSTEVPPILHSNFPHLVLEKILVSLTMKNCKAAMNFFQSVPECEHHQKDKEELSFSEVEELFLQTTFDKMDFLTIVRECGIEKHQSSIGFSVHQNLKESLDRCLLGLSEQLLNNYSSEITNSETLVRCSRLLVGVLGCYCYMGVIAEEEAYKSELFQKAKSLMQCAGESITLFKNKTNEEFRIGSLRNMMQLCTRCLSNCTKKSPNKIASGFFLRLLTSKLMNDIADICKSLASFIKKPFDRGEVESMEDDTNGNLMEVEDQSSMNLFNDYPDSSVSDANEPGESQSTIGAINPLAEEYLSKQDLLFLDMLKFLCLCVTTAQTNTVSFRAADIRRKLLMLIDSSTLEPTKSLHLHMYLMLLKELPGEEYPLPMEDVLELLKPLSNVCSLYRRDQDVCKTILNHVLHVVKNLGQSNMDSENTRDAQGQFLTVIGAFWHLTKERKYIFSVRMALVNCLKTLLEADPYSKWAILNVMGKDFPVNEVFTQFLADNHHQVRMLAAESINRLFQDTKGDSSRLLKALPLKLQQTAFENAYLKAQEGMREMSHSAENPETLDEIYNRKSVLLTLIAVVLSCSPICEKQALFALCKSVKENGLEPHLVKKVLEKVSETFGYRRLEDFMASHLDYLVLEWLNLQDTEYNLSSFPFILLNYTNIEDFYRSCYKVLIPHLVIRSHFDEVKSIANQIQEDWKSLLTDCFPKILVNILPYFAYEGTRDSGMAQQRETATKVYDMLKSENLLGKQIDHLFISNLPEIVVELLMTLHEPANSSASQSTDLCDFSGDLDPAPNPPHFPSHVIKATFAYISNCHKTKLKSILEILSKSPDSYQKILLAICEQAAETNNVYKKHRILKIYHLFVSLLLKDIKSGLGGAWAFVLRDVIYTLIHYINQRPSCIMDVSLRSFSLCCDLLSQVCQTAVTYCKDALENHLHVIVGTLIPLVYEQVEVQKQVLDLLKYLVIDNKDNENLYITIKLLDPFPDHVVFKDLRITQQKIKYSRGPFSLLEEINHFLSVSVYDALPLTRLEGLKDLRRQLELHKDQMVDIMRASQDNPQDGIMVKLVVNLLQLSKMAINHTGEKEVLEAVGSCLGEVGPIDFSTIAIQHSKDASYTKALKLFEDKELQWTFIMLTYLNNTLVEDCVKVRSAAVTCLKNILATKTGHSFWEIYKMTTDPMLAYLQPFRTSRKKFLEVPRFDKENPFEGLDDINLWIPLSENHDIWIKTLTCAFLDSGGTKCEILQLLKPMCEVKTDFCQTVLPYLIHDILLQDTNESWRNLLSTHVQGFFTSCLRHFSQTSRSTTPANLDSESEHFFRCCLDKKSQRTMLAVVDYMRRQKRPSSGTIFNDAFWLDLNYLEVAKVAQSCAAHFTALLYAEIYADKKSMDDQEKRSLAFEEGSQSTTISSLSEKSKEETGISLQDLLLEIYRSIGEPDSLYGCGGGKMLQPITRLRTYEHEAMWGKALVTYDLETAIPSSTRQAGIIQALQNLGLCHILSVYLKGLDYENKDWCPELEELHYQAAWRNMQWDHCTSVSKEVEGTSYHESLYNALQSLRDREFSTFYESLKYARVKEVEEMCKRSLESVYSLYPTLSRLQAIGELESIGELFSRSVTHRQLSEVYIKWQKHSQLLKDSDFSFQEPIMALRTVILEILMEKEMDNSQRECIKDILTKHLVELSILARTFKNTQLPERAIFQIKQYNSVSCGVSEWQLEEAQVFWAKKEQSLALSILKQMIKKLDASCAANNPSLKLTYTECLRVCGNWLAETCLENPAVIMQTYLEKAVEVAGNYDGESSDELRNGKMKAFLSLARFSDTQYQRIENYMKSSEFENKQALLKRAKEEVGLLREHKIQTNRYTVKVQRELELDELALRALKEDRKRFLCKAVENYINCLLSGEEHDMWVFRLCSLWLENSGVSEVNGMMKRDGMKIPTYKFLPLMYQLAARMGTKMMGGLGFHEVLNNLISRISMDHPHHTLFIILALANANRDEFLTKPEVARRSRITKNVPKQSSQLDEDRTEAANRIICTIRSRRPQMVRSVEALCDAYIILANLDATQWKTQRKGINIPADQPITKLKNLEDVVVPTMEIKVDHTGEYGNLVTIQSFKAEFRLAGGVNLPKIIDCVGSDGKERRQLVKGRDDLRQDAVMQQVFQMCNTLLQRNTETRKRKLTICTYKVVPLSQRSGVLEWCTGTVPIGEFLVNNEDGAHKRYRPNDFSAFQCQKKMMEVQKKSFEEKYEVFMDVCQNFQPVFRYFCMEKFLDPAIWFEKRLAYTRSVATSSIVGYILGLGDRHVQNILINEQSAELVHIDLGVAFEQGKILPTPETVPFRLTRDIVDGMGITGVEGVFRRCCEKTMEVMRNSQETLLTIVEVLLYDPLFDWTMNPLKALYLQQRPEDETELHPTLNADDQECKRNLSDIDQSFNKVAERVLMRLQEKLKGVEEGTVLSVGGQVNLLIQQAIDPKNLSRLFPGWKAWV
Description: as §1, §2

mTOR = mTOR (Homo sapiens (Human), UniProt P42345); assay: mTOR activity assay (LanthaScreen); type: biochemical
Protocol: The enzymatic mTOR activity was measured using a LanthaScreen™ kinase activity assay (Invitrogen). The enzyme was purchased from Invitrogen (PV4754), as well as the GFP-labelled substrate (4EBP1-GFP; PV4759) and the Tb-antip4EBP1(pThr46) antibody (PV4757). The assay was performed in 50 Mm HEPES buffer, pH 7.5, containing 1.5 mM MnCl2, 10 mM MgCl2, 1 mM EGTA, 2.5 mM DTT and 0.01% Tween-20. The concentration of the assay components were the following: 0.24 nM mTOR kinase, 400 nM 4EBP1-GFP, […] and serial dilutions of the compound (inhibitor) to be evaluated. After 1 h incubation at room temperature, 20 mM EDTA was used to stop the reaction and terbium-labelled antibody (4 nM) added to detect phosphorylated product. The antibody associates with the phosphorylated product resulting in an increased TR-FRET value. The TR-FRET value (a dimensionless number) was calculated as the ratio of the acceptor signal (GFP, emission at 520 nm) to the donor signal (terbium, emission at 495 nm).

PI3K (p110α/p85α) = PI3K (p110α/p85α) (Homo sapiens (Human), UniProt P42336); assay: PI3K alpha activity assay (ADP Hunter Plus); type: biochemical; conditions: 50 μM ATP, 30 μM PIP2; read-out: PI3Kα IC50
PI3K (p110α/p85α), sequence (P42336 whole entry): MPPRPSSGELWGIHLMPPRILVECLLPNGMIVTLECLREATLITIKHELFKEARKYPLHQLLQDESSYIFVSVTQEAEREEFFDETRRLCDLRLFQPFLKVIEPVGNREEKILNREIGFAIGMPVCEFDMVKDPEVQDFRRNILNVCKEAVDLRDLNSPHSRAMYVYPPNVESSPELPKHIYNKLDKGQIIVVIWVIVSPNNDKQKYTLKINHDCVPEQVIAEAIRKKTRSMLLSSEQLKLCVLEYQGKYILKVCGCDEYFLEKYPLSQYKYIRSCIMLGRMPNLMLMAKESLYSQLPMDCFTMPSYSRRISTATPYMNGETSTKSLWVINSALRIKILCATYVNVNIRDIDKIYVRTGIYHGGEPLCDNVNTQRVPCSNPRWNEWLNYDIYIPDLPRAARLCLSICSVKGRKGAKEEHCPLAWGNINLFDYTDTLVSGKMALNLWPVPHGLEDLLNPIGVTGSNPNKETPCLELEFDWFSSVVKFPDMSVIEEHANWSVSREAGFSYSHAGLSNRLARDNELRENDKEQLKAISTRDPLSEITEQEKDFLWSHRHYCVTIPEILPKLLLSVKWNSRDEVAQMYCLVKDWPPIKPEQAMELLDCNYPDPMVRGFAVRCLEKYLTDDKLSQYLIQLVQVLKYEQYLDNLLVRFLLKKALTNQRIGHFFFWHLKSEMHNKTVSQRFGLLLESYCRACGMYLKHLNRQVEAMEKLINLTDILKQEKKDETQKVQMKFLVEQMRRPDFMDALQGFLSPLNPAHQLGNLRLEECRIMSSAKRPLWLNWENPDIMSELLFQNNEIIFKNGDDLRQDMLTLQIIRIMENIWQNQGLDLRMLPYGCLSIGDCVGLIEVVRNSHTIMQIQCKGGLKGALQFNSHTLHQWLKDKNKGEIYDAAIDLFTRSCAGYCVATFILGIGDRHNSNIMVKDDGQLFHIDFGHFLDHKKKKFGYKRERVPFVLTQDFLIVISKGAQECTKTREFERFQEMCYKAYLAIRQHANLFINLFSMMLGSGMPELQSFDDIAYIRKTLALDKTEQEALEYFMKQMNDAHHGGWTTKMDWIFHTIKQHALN
PI3K (p110α/p85α), sequence (P27986 whole entry partner): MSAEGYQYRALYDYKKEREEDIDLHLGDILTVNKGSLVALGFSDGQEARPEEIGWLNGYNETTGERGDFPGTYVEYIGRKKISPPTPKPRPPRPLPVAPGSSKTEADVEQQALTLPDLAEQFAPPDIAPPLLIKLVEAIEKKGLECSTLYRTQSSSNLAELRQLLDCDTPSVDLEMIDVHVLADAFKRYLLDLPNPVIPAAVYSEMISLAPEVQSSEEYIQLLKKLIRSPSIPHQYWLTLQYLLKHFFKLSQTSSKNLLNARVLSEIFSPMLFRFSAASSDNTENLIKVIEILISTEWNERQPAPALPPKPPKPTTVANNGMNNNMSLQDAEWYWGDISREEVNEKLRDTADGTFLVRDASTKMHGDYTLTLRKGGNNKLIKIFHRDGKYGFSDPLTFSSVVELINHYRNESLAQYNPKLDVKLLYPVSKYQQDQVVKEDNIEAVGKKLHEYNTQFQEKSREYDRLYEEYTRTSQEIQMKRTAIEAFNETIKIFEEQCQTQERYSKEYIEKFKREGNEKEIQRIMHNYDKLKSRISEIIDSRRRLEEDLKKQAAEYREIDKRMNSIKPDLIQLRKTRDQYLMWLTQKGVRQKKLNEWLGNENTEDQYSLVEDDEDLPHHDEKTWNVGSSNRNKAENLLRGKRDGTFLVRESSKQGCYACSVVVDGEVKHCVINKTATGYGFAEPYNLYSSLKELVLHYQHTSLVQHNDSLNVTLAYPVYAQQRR
Protocol: The kinase activity was measured by using the commercial ADP Hunter™ Plus assay available from DiscoveRx (#33-016), which is a homogeneous assay to measure the accumulation of ADP, a universal product of kinase activity. […] The reaction was carried out for 1 hour at 25° C. Reagent A and B were sequentially added to the wells and plates were incubated for 30 min at 37° C. Fluorescence counts were read in a Victor instrument (Perkin Elmer) with the recommended settings (544 and 580 nm as excitation and emission wavelengths, respectively).

DNA-PK = DNA-PK (Homo sapiens (Human), UniProt P78527); assay: DNAPK activity assay (ADP Hunter Plus); type: biochemical; conditions: 75 μM ATP
Protocol: The kinase activity was measured by using the commercial ADP Hunter™ Plus assay available from DiscoveRx (#90-0083), which is a homogeneous assay to measure the accumulation of ADP, a universal product of kinase activity. The enzyme, DNA-PK was purchased from Promega (#V5811). The assay was done following the manufacturer recommendations with slight modifications: Mainly the kinase buffer was replace by 15 mM HEPES, pH 7.5, 10 mM MgCl2, 20 mM NaCl, 1 mM EGTA, 0.1 mg/mL BGG, 0.02% Tween 20. The DNA-PK was assayed in a titration experiment to determine the optimal protein concentration for the inhibition assay. To calculate the […] of the Compounds, serial 1:3 dilutions of the compounds were added to the enzyme at a fixed concentration (2 U/μL). The enzyme was preincubated with the inhibitor and 200 μM DNA substrate and then ATP was added to a final 75 μM concentration. Reaction was carried out for 1 hour at 37° C. Reagent A and B were sequentially added to the wells and plates were incubated for 30 min at RT. Fluorescence counts were read in a EnVision instrument (Perkin Elmer) with the recommended settings (550 and 590 nm as excitation and emission wavelengths, respectively).

Row | SMILES | EC50 (ATR [1]; hydroxyurea 2.5 mM) | inhibition at 10 µM (ATR [2]) | inhibition at 10 µM (ATM) | IC50 (mTOR) | IC50 (PI3K (p110α/p85α)) | IC50 (DNA-PK) | also measured
1 | CNc1nc2ccccc2n1-c1nc2c(c(C(C)(C)S(C)(=O)=O)n1)OC[C@@H]1COCCN21 [Example 11] | < 0.1 µM | – | – | – | – | – | IC50 (CYP 2C19): > 50 µM; tumor growth inhibition (TGI) (Eμmyc lymphoma cells; 25 mg/kg oral once daily, day 33, compared to vehicle): 53%; tumor growth inhibition (TGI) (Eμmyc lymphoma cells; 50 mg/kg oral once daily, day 33, compared to vehicle): 74%; IC50 (CYP 2D6): > 50 µM; IC50 (CYP 2C9): 34 µM; IC50 (CYP 1A2): > 50 µM; IC50 (CYP 3A4): 39 µM
2 | CNc1nc2ccccc2n1-c1nc2c(c(C(C)(C)S(C)(=O)=O)n1)OCC1COCCN21 (stereo not shown) [Example 8] | < 0.1 µM | 98% | 25% | – | – | – | –
3 | O=S(=O)(Cc1nc(-c2cccc3[nH]ccc23)nc2c1OCC1COCCN21)C(F)(F)F (stereo not shown) [Example 5] | 0.1 to 1 µM | 98% | 0% | – | – | – | –
4 | CS(=O)(=O)C1(c2nc(-c3cccc4[nH]ccc34)nc3c2OC[C@H]2COCCN32)CCOCC1 [Example 10] | 0.1 to 1 µM | 95% | 25% | – | – | – | –
5 | C[C@@H]1CN(CC(=O)Nc2ccc3c(c2)Cc2cccc(-c4cc(=O)cc(N5CCOCC5)o4)c2S3)C[C@H](C)O1 [ATM inhibitor KU-60019, reference compound] | – | 38% | 99% | – | – | – | –
6 | CS(=O)(=O)C1(c2nc(-c3cccc4[nH]ccc34)nc3c2OCC2COCCN32)CCOCC1 (stereo not shown) [Example 2] | < 0.1 µM | 98% | 0% | – | – | – | –
7 | CC(C)(c1nc(-c2cccc3[nH]ccc23)nc2c1OCC1COCCN21)S(C)(=O)=O (stereo not shown) [Example 1] | < 0.1 µM | 99% | 0% | – | – | – | –
8 | CS(=O)(=O)C1(c2nc(-c3cc(F)cc4[nH]ccc34)nc3c2OC[C@@H]2COCCN32)CCC1 [Example 77] | < 0.1 µM | – | – | > 10 µM | 5.36 µM | 10 µM | –
9 | CNc1nc2cc(F)ccc2n1-c1nc2c(c(C(C)(C)S(C)(=O)=O)n1)OC[C@@H]1COCCN21 [Example 82] | – | – | – | 1.59 µM | 5.6 µM | 10 µM | EC50 (ATR [1]; hydroxyurea […]): 0.1 to 1 µM
10 | CC(C)(c1nc(-c2cc(C(F)(F)F)cc3[nH]ccc23)nc2c1OC[C@@H]1COCCN21)S(C)(=O)=O [Example 101] | 0.1 to 1 µM | – | – | 0.227 µM | 12.6 µM | 10 µM | –
11 | CS(=O)(=O)C1(c2nc(-c3ccc(F)c4[nH]ccc34)nc3c2OC[C@@H]2COCCN32)CCOCC1 [Example 106] | > 1 µM | – | – | 10 µM | 50 µM | 1.16 µM | –
12 | CNc1nc2ccc(F)cc2n1-c1nc2c(c(C(C)(C)S(C)(=O)=O)n1)OC[C@@H]1COCCN21 [Example 83] | – | – | – | 2.47 µM | 12.2 µM | 3.11 µM | EC50 (ATR [1]; hydroxyurea […]): 0.1 to 1 µM
13 | CS(=O)(=O)C1(c2nc(-c3cccc4[nH]ccc34)nc3c2OC[C@@H]2COCCN32)CCOCC1 [Example 3] | < 0.1 µM | 98% | 0% | – | – | – | IC50 (CYP 2C19): > 50 µM; tumor growth inhibition (TGI) (Eμmyc lymphoma cells; 25 mg/kg oral once daily, day 23, compared to vehicle): 46%; IC50 (CYP 2C9): > 50 µM; IC50 (CYP 1A2): > 50 µM; IC50 (CYP 3A4): > 50 µM
14 | CS(=O)(=O)C1(c2nc(-c3cc(C(F)(F)F)cc4[nH]ccc34)nc3c2OC[C@@H]2COCCN32)CCOCC1 [Example 105] | 0.1 to 1 µM | – | – | 1.99 µM | 28.9 µM | 10 µM | –
15 | CC(C)(c1nc(-c2cccc3[nH]ccc23)nc2c1OC[C@H]1COCCN21)S(C)(=O)=O [Example 15] | 0.1 to 1 µM | – | – | 0.851 µM | 1.1 µM | 2.86 µM | –

Reference: US9453031B2, “Chemical entities” (Fundación Centro Nacional de Investigaciones Oncológicas …, priority 2013, dated 2016)
